Assays:
[1] = test system: B. subtilis 168; assay: fitness (endpoint OD595 vs no drug) (fraction); higher = more growth
In short: (§1)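 Plates with 384 wells were inoculated at OD595 0.01 using 30 µl of TSB, LB Lennox or CY, or 55 µl for S. pneumoniae. Incubation was at 37 °C, with OD595 measured every 30 min for 14 h. Fitness is the stationary-phase transition optical density over the robust mean of no-drug control wells, after first-reading background subtraction; it is capped at 1.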

[2] = test system: S. pneumoniae D39V; assay: as above
In short: as §1

[3] = test system: B. subtilis 168; assay: Bliss interaction score (quartile over a dose matrix) (fitness difference); higher = more antagonism (negative = synergy)
In short: (§2)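 Fitness was defined as normalised growth: OD595 at the start of stationary phase divided by the plate's robust no-drug mean and capped at 1. Single-drug fitness was inferred from combination measurements. The Bliss score is observed fitness minus the product of the single-drug values, summarised by quartiles across technical, biological and donor/recipient replicates.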

[4] = test system: S. aureus DSM 20231; assay: as above
In short: as §2

[5] = test system: S. aureus Newman; assay: as above
In short: as §2

[6] = test system: S. pneumoniae D39V; assay: as above
In short: as §2
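Throughout, for Bliss interaction score (quartile over a dose matrix): first quartile when negative (synergy) and third quartile when positive (antagonism).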

C[C@H]1COc2c(N3CCN(C)CC3)c(F)cc3c(=O)c(C(=O)O)cn1c23 [Levofloxacin] + Cc1cc(NS(=O)(=O)c2ccc(N)cc2)no1 [Sulfamethoxazol]
fitness, one replicate
Details	partner 0.5 µg/mL	partner 1 µg/mL	partner 2 µg/mL	partner 4 µg/mL
[1], first compound 0.001 µg/mL	–	0.98	0.98	0.929
[1], first compound 0.002 µg/mL	0.955	–	–	0.885
[1], first compound 0.0039 µg/mL	0.939	–	–	0.834
[1], first compound 0.0078 µg/mL	0.862	0.782	0.788	–
[2], first compound 0.2 µg/mL	–	0.955	0.902	0.841
[2], first compound 0.4 µg/mL	–	0.854	0.87	0.771
[2], first compound 0.8 µg/mL	–	0.373	0.495	0.487

fitness
Details	partner 1 µg/mL	partner 2 µg/mL	partner 4 µg/mL
[1], first compound 0.002 µg/mL	0.867	0.881	–
[1], first compound 0.0039 µg/mL	0.831	0.841	–
[1], first compound 0.0312 µg/mL	0.0318	0.0375	0.0268
[1], first compound 0.0625 µg/mL	0.0358	0.0467	0.0289
[1], first compound 0.125 µg/mL	0.0382	0.0353	0.0242
[2], first compound 0.1725 µg/mL	0.935	0.972	0.967
[2], first compound 0.345 µg/mL	0.824	0.827	0.833
[2], first compound 0.69 µg/mL	0.455	0.461	0.498

Details	Bliss interaction score
[3]	-0.0263
[4]	-0.125
[5]	0.0779
[6]	-0.0634

C[C@H]1COc2c(N3CCN(C)CC3)c(F)cc3c(=O)c(C(=O)O)cn1c23 [Levofloxacin] + Cc1ncc([N+](=O)[O-])n1CCO [Metronidazole]
fitness, [1], one replicate
Details	first compound 0.001 µg/mL	first compound 0.002 µg/mL	first compound 0.0039 µg/mL
partner 0.625 µg/mL	0.946	0.911	0.852
partner 1.25 µg/mL	0.96	0.85	0.845
partner 2.5 µg/mL	0.965	0.929	0.855

Details	fitness
[1], first compound 0.0312 µg/mL, partner 0.625 µg/mL	0.0462
[1], first compound 0.0312 µg/mL, partner 1.25 µg/mL	0.0567
[1], first compound 0.0312 µg/mL, partner 2.5 µg/mL	0.0324
[1], first compound 0.0625 µg/mL, partner 0.625 µg/mL	0.0491
[1], first compound 0.0625 µg/mL, partner 1.25 µg/mL	0.0521
[1], first compound 0.0625 µg/mL, partner 2.5 µg/mL	0.0541
[1], first compound 0.125 µg/mL, partner 0.625 µg/mL	0.0404
[1], first compound 0.125 µg/mL, partner 1.25 µg/mL	0.0466
[1], first compound 0.125 µg/mL, partner 2.5 µg/mL	0.0398
[2], first compound 0.1725 µg/mL, partner 1.25 µg/mL	0.985
[2], first compound 0.1725 µg/mL, partner 2.5 µg/mL	0.993
[2], first compound 0.1725 µg/mL, partner 5 µg/mL	0.976
[2], first compound 0.2 µg/mL, partner 1.073 µg/mL	0.95
[2], first compound 0.2 µg/mL, partner 2.145 µg/mL	0.91
[2], first compound 0.2 µg/mL, partner 4.29 µg/mL	0.899
[2], first compound 0.345 µg/mL, partner 1.25 µg/mL	0.903
[2], first compound 0.345 µg/mL, partner 2.5 µg/mL	0.92
[2], first compound 0.345 µg/mL, partner 5 µg/mL	0.931
[2], first compound 0.4 µg/mL, partner 1.073 µg/mL	0.873
[2], first compound 0.4 µg/mL, partner 2.145 µg/mL	0.85
[2], first compound 0.4 µg/mL, partner 4.29 µg/mL	0.819
[2], first compound 0.69 µg/mL, partner 1.25 µg/mL	0.7
[2], first compound 0.69 µg/mL, partner 2.5 µg/mL	0.704
[2], first compound 0.69 µg/mL, partner 5 µg/mL	0.686
[2], first compound 0.8 µg/mL, partner 1.073 µg/mL	0.765
[2], first compound 0.8 µg/mL, partner 2.145 µg/mL	0.765
[2], first compound 0.8 µg/mL, partner 4.29 µg/mL	0.71

Details	Bliss interaction score
[3]	0.0195
[4]	-0.0575
[5]	-0.0661
[6]	0.121

C[C@H]1COc2c(N3CCN(C)CC3)c(F)cc3c(=O)c(C(=O)O)cn1c23 [Levofloxacin] + Cc1onc(-c2ccccc2)c1C(=O)N[C@@H]1C(=O)N2[C@@H]1SC(C)(C)[C@@H]2C(=O)O [Oxacillin]
fitness, [1], one replicate
Details	partner 0.0078 µg/mL	partner 0.0155 µg/mL	partner 0.031 µg/mL	partner 0.075 µg/mL	partner 0.15 µg/mL	partner 0.3 µg/mL
first compound 0.001 µg/mL	0.942	0.965	0.932	–	–	–
first compound 0.002 µg/mL	0.898	0.936	0.876	0.476	0.0412	0.0517
first compound 0.0039 µg/mL	0.832	0.849	0.741	0.416	0.038	0.0324
first compound 0.0078 µg/mL	–	–	–	0.592	0.0582	0.0577

Details	fitness
[1], first compound 0.0312 µg/mL, partner 0.002 µg/mL	0.0448
[1], first compound 0.0312 µg/mL, partner 0.004 µg/mL	0.0387
[1], first compound 0.0312 µg/mL, partner 0.008 µg/mL	0.0483
[1], first compound 0.0625 µg/mL, partner 0.002 µg/mL	0.0429
[1], first compound 0.0625 µg/mL, partner 0.004 µg/mL	0.0548
[1], first compound 0.0625 µg/mL, partner 0.008 µg/mL	0.0559
[1], first compound 0.125 µg/mL, partner 0.002 µg/mL	0.0397
[1], first compound 0.125 µg/mL, partner 0.004 µg/mL	0.0414
[1], first compound 0.125 µg/mL, partner 0.008 µg/mL	0.0574
[2], first compound 0.1725 µg/mL, partner 0.01 µg/mL	0.972
[2], first compound 0.1725 µg/mL, partner 0.02 µg/mL	0.917
[2], first compound 0.2 µg/mL, partner 0.01 µg/mL	0.928
[2], first compound 0.2 µg/mL, partner 0.02 µg/mL	0.898
[2], first compound 0.2 µg/mL, partner 0.04 µg/mL	0.495
[2], first compound 0.345 µg/mL, partner 0.01 µg/mL	0.9
[2], first compound 0.345 µg/mL, partner 0.02 µg/mL	0.894
[2], first compound 0.4 µg/mL, partner 0.01 µg/mL	0.809
[2], first compound 0.4 µg/mL, partner 0.02 µg/mL	0.785
[2], first compound 0.4 µg/mL, partner 0.04 µg/mL	0.402
[2], first compound 0.69 µg/mL, partner 0.01 µg/mL	0.704
[2], first compound 0.69 µg/mL, partner 0.02 µg/mL	0.571
[2], first compound 0.8 µg/mL, partner 0.04 µg/mL	0.24

Details	Bliss interaction score
[3]	-0.0169
[4]	0.0488
[5]	0.0619
[6]	0.11

CN(C)C(=O)C(CCN1CCC(O)(c2ccc(Cl)cc2)CC1)(c1ccccc1)c1ccccc1 [Loperamide] + CC1=C\[C@@H](O)CC(=O)Cc2nc(co2)C(=O)N2CCC=C2C(=O)O[C@H](C(C)C)[C@H](C)/C=C/C(=O)NC\C=C\1 [Virginiamycin M1]
Details	fitness
[1], first compound 25 µg/mL, partner 0.0625 µg/mL	0.809
[1], first compound 25 µg/mL, partner 0.125 µg/mL	0.745
[1], first compound 25 µg/mL, partner 0.25 µg/mL	0.755
[1], first compound 50 µg/mL, partner 0.0625 µg/mL	0.0261
[1], first compound 50 µg/mL, partner 0.125 µg/mL	0.0336
[1], first compound 50 µg/mL, partner 0.25 µg/mL	0.0356
[1], first compound 100 µg/mL, partner 0.0625 µg/mL	0.0228
[1], first compound 100 µg/mL, partner 0.125 µg/mL	0.0378
[1], first compound 100 µg/mL, partner 0.25 µg/mL	0.0328
[2], first compound 17.14 µg/mL, partner 0.5 µg/mL	≥ 1
[2], first compound 17.14 µg/mL, partner 1 µg/mL	≥ 1
[2], first compound 17.14 µg/mL, partner 2 µg/mL	≥ 1
[2], first compound 20 µg/mL, partner 2 µg/mL	≥ 1
[2], first compound 34.28 µg/mL, partner 0.5 µg/mL	≥ 1
[2], first compound 34.28 µg/mL, partner 1 µg/mL	≥ 1
[2], first compound 34.28 µg/mL, partner 2 µg/mL	≥ 1
[2], first compound 40 µg/mL, partner 2 µg/mL	≥ 1

fitness, [2], one replicate
Details	partner 0.15 µg/mL	partner 0.3 µg/mL	partner 0.5 µg/mL	partner 1 µg/mL	partner 2 µg/mL
first compound 20 µg/mL	≥ 1	0.999	≥ 1	≥ 1	–
first compound 40 µg/mL	≥ 1	≥ 1	≥ 1	≥ 1	–
first compound 68.57 µg/mL	–	–	≥ 1	≥ 1	≥ 1
first compound 80 µg/mL	≥ 1	≥ 1	0.348	0.0702	–

Details	Bliss interaction score
[3]	-0.0999
[4]	-0.211
[5]	0.0415
[6]	0.0883

Source: the supplement of paper PMC10627819
